According to PMC2248166, “Quantitative peptide binding motifs for 19 human and mouse MHC class I molecules derived using positional scanning combinatorial peptide libraries” (Immunome Research, 2008):

Legend:
[1] = molecular target: HLA A*0201 (Homo sapiens, UniProt P04439, D140Y/D185E/D98H/E176V/E277Q/G131W/G231S/I119V/I121R/I166T/I218V/L300P/L318F/N151K/N90K/P208A/P217A/Q86G/Q94H/R138H/R169H/T345S); settings: positional scanning combinatorial 9-mer library; normalized to 1.0 for the best residue at each position
[2] = molecular target: HLA B*5101 (Homo sapiens, UniProt P01889, A329T/A93T/A95T/C349S/D138N/D201E/D98Y/E187L/E204Q/E69T/G107R/I218V/K202T/L105A/L119W/N104I/Q94N/R106L/R155S/R180L/S101N/S121T/S35A/S48A/V306I/V36M/Y195H/Y91F); type: binding
[3] = molecular target: HLA B*1503 (Homo sapiens, UniProt P01889, A329T/A93T/A95T/C349S/D201E/D98Y/E187L/E204Q/K202T/N87E/Q94N/R155S/R180L/S121R/S35A/V306I/V36M/Y140S/Y91S); assay: biochemical; type: binding
[4] = molecular target: HLA A*6802 (Homo sapiens, UniProt P04439, A269V/D140Y/D185E/E176V/E277Q/E87N/F33Y/G231S/I121R/I166T/I218V/L180W/L300P/L318F/N151K/P208A/P217A/Q86R/R138H/R169H/S129P/T345S/V36M); type: binding
[5] = molecular target: HLA A*3201 (Homo sapiens, UniProt P04439, A270S/D101S/D185E/E176V/E277Q/F133L/G103R/G107R/G231S/H175R/I121M/I218V/I322F/K168Q/L105A/L300P/L318F/M331R/P208A/P217A/Q94H/R106L/R138Q/S129P/T104I/T323A/T345S/V100E/V321M/V358M); assay: biochemical; type: binding
[6] = molecular target: HLA B*5401 (Homo sapiens, UniProt P01889, A329T/C349S/D138N/D201E/E176V/E187T/E204Q/E69G/I76V/K202T/L119W/R155S/R180L/S121T/S35A/S48A/V127L/V306I/V36M/Y140L); type: binding
[7] = molecular target: H-2 K^k (Mus musculus, UniProt P04223); type: binding
[8] = molecular target: HLA A*3001 (Homo sapiens, UniProt P04439, D140H/D185E/E176W/F33S/G80R/H175R/K168Q/R138E/R41S); assay: biochemical; type: binding
[9] = molecular target: HLA B*3501 (Homo sapiens, UniProt P01889, A329T/A93T/A95T/C349S/D201E/D98Y/E176V/E187L/E204Q/E69T/I218V/K202T/L119I/Q94N/R155S/R180L/S121R/S35A/S48A/T118I/V127L/V306I/V36M/Y140S/Y91F); type: binding
[10] = molecular target: HLA B*5802 (Homo sapiens, UniProt P01889, A329T/C349S/D201E/D98Y/E176V/E187L/E204Q/E69T/G107R/I218V/I90N/K202T/L105A/N104I/N87E/Q89R/Q94S/R106L/R155S/R180L/R86G/S101N/S121W/S35A/S48A/V127L/V306I/V36M/Y140S/Y91M); type: binding
[11] = molecular target: HLA B*5301 (Homo sapiens, UniProt P01889, A329T/A93T/A95T/C349S/D201E/D98Y/E176V/E187L/E204Q/E69T/G107R/I218V/K202T/L105A/L119I/N104I/Q94N/R106L/R155S/R180L/S101N/S121R/S35A/S48A/T118I/V127L/V306I/V36M/Y140S/Y91F); type: binding
[12] = molecular target: H-2 D^d (Mus musculus, UniProt P01900); type: binding
[13] = molecular target: H-2 D^b (Mus musculus, UniProt P01899); type: binding
[14] = molecular target: HLA B*1501 (Homo sapiens, UniProt P01889, A329T/A93T/A95T/C349S/D201E/D98Y/E187L/E204Q/E69M/E70A/K202T/N87E/Q94N/R155S/R180W/S121R/S35A/S48A/V306I/V36M/Y140S/Y91S); assay: biochemical; type: binding
[15] = molecular target: HLA B*0801 (Homo sapiens, UniProt P01889, A93T/A95T/D138N/E176V/E187T/K202T/Q94N/R180D/S35A/V36M/Y33D/Y91F); assay: biochemical; type: binding
[16] = molecular target: HLA B*0702 (Homo sapiens, UniProt P01889); type: binding; settings: positional scanning combinatorial 9-mer library; normalized to 1.0 for the best residue at each position
[17] = molecular target: HLA B*2705 (Homo sapiens, UniProt P01889, D138H/D201E/E176V/E204Q/G107R/H137Y/K202T/N104T/N87E/Q56L/Q94K/R106L/R155S/R180L/S101D/S121N/S48T/Y140D/Y33H/Y91C); type: binding; settings: positional scanning combinatorial 9-mer library; normalized to 1.0 for the best residue at each position
[18] = molecular target: HLA B*5801 (Homo sapiens, UniProt P01889, A329T/C349S/D201E/D98Y/E176V/E187L/E204Q/E69T/G107R/I218V/I90N/K202T/L105A/L119I/N104I/N87E/Q89R/Q94S/R106L/R155S/R180L/R86G/S101N/S121R/S35A/S48A/T118I/V127L/V306I/V36M/Y140S/Y91M); type: binding

H-2 D^b, sequence (P01887 21-119): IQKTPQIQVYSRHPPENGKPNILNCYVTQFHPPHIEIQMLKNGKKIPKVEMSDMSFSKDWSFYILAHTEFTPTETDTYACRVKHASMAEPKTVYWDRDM
H-2 D^b, sequence (P01899 25-362): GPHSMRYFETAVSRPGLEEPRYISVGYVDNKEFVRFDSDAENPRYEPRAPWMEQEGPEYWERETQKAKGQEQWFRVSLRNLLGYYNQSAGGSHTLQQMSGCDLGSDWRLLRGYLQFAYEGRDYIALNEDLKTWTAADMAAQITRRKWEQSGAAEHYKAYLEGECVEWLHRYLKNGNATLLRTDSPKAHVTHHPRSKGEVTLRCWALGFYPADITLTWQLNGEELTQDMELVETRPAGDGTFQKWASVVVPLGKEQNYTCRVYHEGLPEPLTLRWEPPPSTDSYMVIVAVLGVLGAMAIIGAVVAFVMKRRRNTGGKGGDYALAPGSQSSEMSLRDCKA
H-2 K^k, sequence (P01887 21-119): as the sequence (P01887 21-119) above
H-2 K^k, sequence (P04223 22-369): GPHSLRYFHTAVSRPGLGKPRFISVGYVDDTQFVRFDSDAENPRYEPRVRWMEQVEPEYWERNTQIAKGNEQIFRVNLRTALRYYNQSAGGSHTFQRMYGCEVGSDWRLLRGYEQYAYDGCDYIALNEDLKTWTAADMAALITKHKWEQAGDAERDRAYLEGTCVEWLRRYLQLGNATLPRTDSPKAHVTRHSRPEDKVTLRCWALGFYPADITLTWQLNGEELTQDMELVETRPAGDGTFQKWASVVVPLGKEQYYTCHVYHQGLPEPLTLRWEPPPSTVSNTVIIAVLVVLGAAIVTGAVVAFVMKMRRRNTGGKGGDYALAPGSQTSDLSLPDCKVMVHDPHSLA
H-2 D^d, sequence (P01900 whole entry, looked up): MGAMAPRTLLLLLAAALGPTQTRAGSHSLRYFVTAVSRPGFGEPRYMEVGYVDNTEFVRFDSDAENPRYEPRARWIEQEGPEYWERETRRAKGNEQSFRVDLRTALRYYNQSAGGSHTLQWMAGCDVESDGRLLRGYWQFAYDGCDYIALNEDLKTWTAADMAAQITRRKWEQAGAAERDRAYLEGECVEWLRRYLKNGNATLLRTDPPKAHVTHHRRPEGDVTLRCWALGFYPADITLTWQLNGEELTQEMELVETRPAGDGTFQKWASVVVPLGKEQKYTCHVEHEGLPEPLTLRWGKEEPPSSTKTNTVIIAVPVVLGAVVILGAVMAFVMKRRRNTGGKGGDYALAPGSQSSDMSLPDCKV

NXXXXXXXX [3064.0012]
Normalized average relative binding affinity (ARB), HLA A*0201 [1]: 0.067
Normalized average relative binding affinity (ARB), HLA B*5101 [2]: 0.19
Normalized average relative binding affinity (ARB), HLA B*1503 [3]: 0.14
Normalized average relative binding affinity (ARB), HLA A*6802 [4]: 0.24
Normalized average relative binding affinity (ARB), HLA A*3201 [5]: 0.13
Normalized average relative binding affinity (ARB), HLA B*5401 [6]: 0.12
Normalized average relative binding affinity (ARB), H-2 Kk [7]: 0.80
Normalized average relative binding affinity (ARB), HLA A*3001 [8]: 0.065
Normalized average relative binding affinity (ARB), HLA B*3501 [9]: 0.29
Normalized average relative binding affinity (ARB), HLA B*5802 [10]: 0.063
Normalized average relative binding affinity (ARB), HLA B*5301 [11]: 0.027
Normalized average relative binding affinity (ARB), H-2 Dd [12]: 0.19
Normalized average relative binding affinity (ARB), H-2 Db [13]: 0.31
Normalized average relative binding affinity (ARB), HLA B*1501 [14]: 0.22
Normalized average relative binding affinity (ARB), HLA B*0801 [15]: 0.43
Normalized average relative binding affinity (ARB), HLA B*0702 [16]: 0.15
Normalized average relative binding affinity (ARB), HLA B*2705 [17]: 0.095
Normalized average relative binding affinity (ARB), HLA B*5801 [18]: 0.056

PXXXXXXXX [3064.0013]
Normalized average relative binding affinity (ARB), HLA A*0201 [1]: 0.0032
Normalized average relative binding affinity (ARB), HLA B*5101 [2]: 0.037
Normalized average relative binding affinity (ARB), HLA B*1503 [3]: 0.018
Normalized average relative binding affinity (ARB), HLA A*6802 [4]: 0.0050
Normalized average relative binding affinity (ARB), HLA A*3201 [5]: 0.055
Normalized average relative binding affinity (ARB), HLA B*5401 [6]: 0.0097
Normalized average relative binding affinity (ARB), H-2 Kk [7]: 0.052
Normalized average relative binding affinity (ARB), HLA A*3001 [8]: 0.0059
Normalized average relative binding affinity (ARB), HLA B*3501 [9]: 0.023
Normalized average relative binding affinity (ARB), HLA B*5802 [10]: 0.059
Normalized average relative binding affinity (ARB), HLA B*5301 [11]: 0.0038
Normalized average relative binding affinity (ARB), H-2 Dd [12]: 0.095
Normalized average relative binding affinity (ARB), H-2 Db [13]: 0.030
Normalized average relative binding affinity (ARB), HLA B*1501 [14]: 0.059
Normalized average relative binding affinity (ARB), HLA B*0801 [15]: 0.012
Normalized average relative binding affinity (ARB), HLA B*0702 [16]: 0.029
Normalized average relative binding affinity (ARB), HLA B*2705 [17]: 0.022
Normalized average relative binding affinity (ARB), HLA B*5801 [18]: 0.030

QXXXXXXXX [3064.0014]
Normalized average relative binding affinity (ARB), HLA A*0201 [1]: 0.019
Normalized average relative binding affinity (ARB), HLA B*5101 [2]: 0.037
Normalized average relative binding affinity (ARB), HLA B*1503 [3]: 0.074
Normalized average relative binding affinity (ARB), HLA A*6802 [4]: 0.039
Normalized average relative binding affinity (ARB), HLA A*3201 [5]: 0.23
Normalized average relative binding affinity (ARB), HLA B*5401 [6]: 0.031
Normalized average relative binding affinity (ARB), H-2 Kk [7]: 0.45
Normalized average relative binding affinity (ARB), HLA A*3001 [8]: 0.063
Normalized average relative binding affinity (ARB), HLA B*3501 [9]: 0.081
Normalized average relative binding affinity (ARB), HLA B*5802 [10]: 0.033
Normalized average relative binding affinity (ARB), HLA B*5301 [11]: 0.021
Normalized average relative binding affinity (ARB), H-2 Dd [12]: 0.39
Normalized average relative binding affinity (ARB), H-2 Db [13]: 0.060
Normalized average relative binding affinity (ARB), HLA B*1501 [14]: 0.25
Normalized average relative binding affinity (ARB), HLA B*0801 [15]: 0.048
Normalized average relative binding affinity (ARB), HLA B*0702 [16]: 0.065
Normalized average relative binding affinity (ARB), HLA B*2705 [17]: 0.067
Normalized average relative binding affinity (ARB), HLA B*5801 [18]: 0.17

RXXXXXXXX [3064.0015]
Normalized average relative binding affinity (ARB), HLA A*0201 [1]: 0.084
Normalized average relative binding affinity (ARB), HLA B*5101 [2]: 0.028
Normalized average relative binding affinity (ARB), HLA B*1503 [3]: 0.56
Normalized average relative binding affinity (ARB), HLA A*6802 [4]: 0.044
Normalized average relative binding affinity (ARB), HLA A*3201 [5]: 0.97
Normalized average relative binding affinity (ARB), HLA B*5401 [6]: 0.027
Normalized average relative binding affinity (ARB), H-2 Kk [7]: 0.11
Normalized average relative binding affinity (ARB), HLA A*3001 [8]: 1.0
Normalized average relative binding affinity (ARB), HLA B*3501 [9]: 0.045
Normalized average relative binding affinity (ARB), HLA B*5802 [10]: 0.52
Normalized average relative binding affinity (ARB), HLA B*5301 [11]: 0.020
Normalized average relative binding affinity (ARB), H-2 Dd [12]: 0.41
Normalized average relative binding affinity (ARB), H-2 Db [13]: 0.12
Normalized average relative binding affinity (ARB), HLA B*1501 [14]: 0.67
Normalized average relative binding affinity (ARB), HLA B*0801 [15]: 0.19
Normalized average relative binding affinity (ARB), HLA B*0702 [16]: 1.0
Normalized average relative binding affinity (ARB), HLA B*2705 [17]: 1.0
Normalized average relative binding affinity (ARB), HLA B*5801 [18]: 0.79

SXXXXXXXX [3064.0016]
Normalized average relative binding affinity (ARB), HLA A*0201 [1]: 0.10
Normalized average relative binding affinity (ARB), HLA B*5101 [2]: 0.051
Normalized average relative binding affinity (ARB), HLA B*1503 [3]: 0.50
Normalized average relative binding affinity (ARB), HLA A*6802 [4]: 0.41
Normalized average relative binding affinity (ARB), HLA A*3201 [5]: 0.39
Normalized average relative binding affinity (ARB), HLA B*5401 [6]: 0.056
Normalized average relative binding affinity (ARB), H-2 Kk [7]: 0.54
Normalized average relative binding affinity (ARB), HLA A*3001 [8]: 0.32
Normalized average relative binding affinity (ARB), HLA B*3501 [9]: 0.10
Normalized average relative binding affinity (ARB), HLA B*5802 [10]: 0.097
Normalized average relative binding affinity (ARB), HLA B*5301 [11]: 0.055
Normalized average relative binding affinity (ARB), H-2 Dd [12]: 0.24
Normalized average relative binding affinity (ARB), H-2 Db [13]: 0.12
Normalized average relative binding affinity (ARB), HLA B*1501 [14]: 0.42
Normalized average relative binding affinity (ARB), HLA B*0801 [15]: 1.0
Normalized average relative binding affinity (ARB), HLA B*0702 [16]: 0.35
Normalized average relative binding affinity (ARB), HLA B*2705 [17]: 0.19
Normalized average relative binding affinity (ARB), HLA B*5801 [18]: 0.16

TXXXXXXXX [3064.0017]
Normalized average relative binding affinity (ARB), HLA A*0201 [1]: 0.094
Normalized average relative binding affinity (ARB), HLA B*5101 [2]: 0.089
Normalized average relative binding affinity (ARB), HLA B*1503 [3]: 0.14
Normalized average relative binding affinity (ARB), HLA A*6802 [4]: 0.29
Normalized average relative binding affinity (ARB), HLA A*3201 [5]: 0.11
Normalized average relative binding affinity (ARB), HLA B*5401 [6]: 0.026
Normalized average relative binding affinity (ARB), H-2 Kk [7]: 0.65
Normalized average relative binding affinity (ARB), HLA A*3001 [8]: 0.050
Normalized average relative binding affinity (ARB), HLA B*3501 [9]: 0.14
Normalized average relative binding affinity (ARB), HLA B*5802 [10]: 0.062
Normalized average relative binding affinity (ARB), HLA B*5301 [11]: 0.027
Normalized average relative binding affinity (ARB), H-2 Dd [12]: 0.25
Normalized average relative binding affinity (ARB), H-2 Db [13]: 0.096
Normalized average relative binding affinity (ARB), HLA B*1501 [14]: 0.13
Normalized average relative binding affinity (ARB), HLA B*0801 [15]: 0.076
Normalized average relative binding affinity (ARB), HLA B*0702 [16]: 0.12
Normalized average relative binding affinity (ARB), HLA B*2705 [17]: 0.12
Normalized average relative binding affinity (ARB), HLA B*5801 [18]: 0.12
